The values below come from ChEMBL document CHEMBL5728172, “Pteridine dione monocarboxylate transporter inhibitors” (2020).

A short description of this assay: Biological Activity of Selected Compounds of the Invention: Specific Examples of compounds of the invention, with estimated EC50 values determined using an MTT assay for 4-day viability of Raji (Burkitt's) lymphoma cells, a cell line known to highly express MCT1 and to be sensitive to small molecule MCT inhibitors,4 are shown in Table 3. Assay protocols follow those described in the literature.4 Other assays that are not described here but that are standard in the field, such as an assay for competitive inhibition of transport of radiolabeled lactic acid, an MCT substrate, may also be useful in establishing mechanism of action of these compounds. The settings on record: 96 h.

Bounds are passed on as bounds.

Turning to `CC(C)Cn1c(=O)n(C)c(=O)c2nc(CCCCCO)c(COc3cccc4ncccc34)nc21`, the concentration for a half-maximal effect (EC50) (commonly the concentration that produces a half-maximal response) was below 50 nM.
